How the values were obtained:
[1] = antagonist effect on the stimulating effect of scopolamine (motor activity), ESE series; format: in vivo; conditions: scopolamine at the dose of 1 mg/kg
Procedure: This is countered by the oral administration of 2.5 mg of ESE001, ESE002, ESE003, ESE004.

[2] = antagonist activity against the stimulating effect of an anticholinergic substance (scopolamine); format: in vivo, mice SWISS; conditions: scopolamine subcutaneously injected, 1mg/kg, mice
Procedure: As the central anticholinergic stimulating agent the scopolamine was used subcutaneously injected to groups of 10 mice SWISS ([…]) at the dose of 1mg/kg.
At this dose the substance under question caused in all the animals a marked increase (80-100%) of the spontaneous motility, evaluated according to the above described method .

[3] = test system: acetylcholinesterase activity (AchE); test: in vivo anticholinesterase activity (blood and brain, Ellman colorimetric method); set-up: species or system Wistar male rats; conditions: rats, oral, 1.5 to 4 mg/kg; sacrificed after 20, 60 and 120 minutes
Procedure: The derivatives, under question and physostigmine suspended in 2% carboxymethylcellulose, were orally administered to groups of Wistar male rats (average weight about 250 g).
On the base of the obtained results in preliminary trials, the doses utilized for the comparison were comprised beween 0.2 and 0.4 mg/kg for physostigmine and between 1.5 and 4 mg/kg for the eseroline derivatives under question.
The groups of treated rats were sacrificed after 20, 60, and 120 minutes and the blood and the brain of each animal were immediately cooled to 0°C and maintained at this temperature during the successive treatments.
The acetylcholinesterase activity (AchE) was determined by using the Ellman et al's quick colorimetric method (Biochem. Pharmacol., 7, 88, 1961) and it was expressed as enzymatic inhibition percentage.

mouse [4] = test: spontaneous motility (Dews' method modified according to Carminati); format: in vivo, mouse (SWISS strain); conditions: for reduction of spontaneous motility: oral, starting from minimal doses of 3.5-5 mg/kg, on average; for minimal doses causing a marked reduction of spontaneous motility: orally administered
Excerpt: The Dews' method was utilized, as modified according to Carminati (Arch. Int. Pharmacodyn. et Thér. 181, 68,1969).

[5] = effect on the succinylcholine curarization duration (corneal reflex); format: in vivo; conditions: i.v. administration of 0.6 mg/kg, rabbit; compared with physostigmine
mouse [6] = test: acute toxicity, oral LD50 in the mouse; conditions: oral, suspension in 2% carboxymethylcellulose, observation period 7 days
Excerpt: (§1) The mouse was used (Swiss strain having the average weight of the male mice being 26 g and 22 g that of the female mice: 5+5 animals per dose, observation period: 7days) The oral LD50 (suspension in 2% carboxymethylcellulose) were reported hereinbelow: Tab.2

[7] = acute toxicity, oral LD50 in the mouse; conditions: mouse, in vivo, po
Excerpt: as §1

Compound | increase in motor activity (stimulating effect) [1] [%] | increase of the spontaneous motility [2] | inhibitory activity of the acetylcholinesterase [3] | reduction of spontaneous motility (mouse [4]) [%] | minimal doses causing a marked reduction of spontaneous motility (mouse [4]) [mg/kg] | anticholinesterase effect with respect to the succinylcholine curarizing action [5] | LD50 in the mouse (mouse [6]) | LD50 at 168 h [7] [mg/kg]
CN1[C@@H]2C[C@@H](OC(=O)[C@H](CO)c3ccccc3)C[C@H]1[C@@H]1O[C@@H]12 [scopolamine, reference compound] | 100 | 80-100% | – | – | – | – | – | –
eseroline L-prolylpyrrolidinamide [MGT2] | – | – | evident dose dipendent and reversible inhibitory activity | ~-39 | 3.5 to 5 | the same anticholinesterase effect | 342,2 ± 11,16 mg/kg | –
CN1CC[C@@]2(C)c3cc(OC(=O)Nc4ccc5c(c4)OCO5)ccc3N(C)[C@@H]12 [MGT7, eseroline 1,3 benzodioxol-5 carbamate] | – | – | evident dose dipendent and reversible inhibitory activity | ~-39 | 3.5 to 5 | – | – | 332
